Test results reported in ChEMBL document CHEMBL5725512, “Fused bicyclic 1,2,4-triazine compounds as TAM inhibitors” (2017).

Assays:
[1] = target: Tyrosine-protein kinase JAK1 (Homo sapiens, UniProt P23458); experiment: JAK1 Assay: As used herein, a selective JAK1 inhibitor is an inhibitor of JAK1 which is selective for JAK1 over JAK2, JAK3 and TYK2. In some embodiments, the compounds or salts are about 10-fold more selective for JAK1 over JAK2. In some embodiments, the compounds or salts are about 10-fold, about 15-fold, or about 20-fold more selective for JAK1 over JAK2 as calculated by measuring IC50 at 1 mM …
[2] = target: T1, Phosphatidylinositol 4,5-bisphosphate 3-kinase catalytic subunit delta isoform (Homo sapiens, UniProt O00329); experiment: PI3K Delta Assay: In some embodiments, the PI3Kδ inhibitor is selective. By ¿selective¿ is meant that the compound binds to or inhibits a kinase with greater affinity or potency, respectively, compared to at least one other kinase. In some embodiments, the PI3Kδ inhibitors are selective inhibitors of PI3Kδ (e.g., over PI3Kα, PI3Kβ and PI3Kγ). In some embodiments, selectivity can be at least about 2-fold, 5-fold, 10-fold, at least about 20-fold, at least about 50-fold, at least about 100-fold, at least about 200-fold, at least about 500-fold or at least about 1000-fold. Selectivity can be measured by methods routine in the art. In some embodiments, selectivity can be tested at the Km ATP concentration of each enzyme. In some embodiments, the selectivity of compounds described herein can be determined by cellular assays associated with particular PI3K kinase activity.
T1 sequence (O00329 whole entry): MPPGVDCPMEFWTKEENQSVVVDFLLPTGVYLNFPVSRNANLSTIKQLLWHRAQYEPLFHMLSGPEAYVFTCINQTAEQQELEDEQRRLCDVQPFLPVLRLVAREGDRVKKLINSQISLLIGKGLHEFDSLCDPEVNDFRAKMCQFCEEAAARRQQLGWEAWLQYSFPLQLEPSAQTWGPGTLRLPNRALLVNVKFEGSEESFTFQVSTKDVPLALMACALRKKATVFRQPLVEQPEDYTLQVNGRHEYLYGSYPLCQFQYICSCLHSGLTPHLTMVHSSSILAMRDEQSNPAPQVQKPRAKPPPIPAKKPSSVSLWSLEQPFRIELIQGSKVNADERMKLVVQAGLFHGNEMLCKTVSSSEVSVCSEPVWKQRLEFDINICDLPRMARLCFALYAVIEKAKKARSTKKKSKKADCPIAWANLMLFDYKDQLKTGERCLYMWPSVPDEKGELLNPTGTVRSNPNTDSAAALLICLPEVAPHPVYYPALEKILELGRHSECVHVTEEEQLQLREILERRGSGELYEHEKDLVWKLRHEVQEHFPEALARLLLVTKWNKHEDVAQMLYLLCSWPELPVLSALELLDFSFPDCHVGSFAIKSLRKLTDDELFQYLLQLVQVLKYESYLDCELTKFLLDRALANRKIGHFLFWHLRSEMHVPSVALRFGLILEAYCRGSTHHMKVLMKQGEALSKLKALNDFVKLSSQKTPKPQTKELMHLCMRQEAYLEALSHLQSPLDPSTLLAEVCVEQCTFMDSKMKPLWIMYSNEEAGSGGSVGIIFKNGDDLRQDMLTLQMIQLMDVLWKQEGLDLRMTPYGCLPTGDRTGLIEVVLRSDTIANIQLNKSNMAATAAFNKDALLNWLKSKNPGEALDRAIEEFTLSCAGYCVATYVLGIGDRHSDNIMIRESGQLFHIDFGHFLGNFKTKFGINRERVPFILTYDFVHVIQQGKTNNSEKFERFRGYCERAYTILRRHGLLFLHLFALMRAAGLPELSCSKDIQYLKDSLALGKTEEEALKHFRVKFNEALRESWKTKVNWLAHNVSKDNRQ

Tyrosine-protein kinase JAK1, sequence (P23458 whole entry, canonical isoform): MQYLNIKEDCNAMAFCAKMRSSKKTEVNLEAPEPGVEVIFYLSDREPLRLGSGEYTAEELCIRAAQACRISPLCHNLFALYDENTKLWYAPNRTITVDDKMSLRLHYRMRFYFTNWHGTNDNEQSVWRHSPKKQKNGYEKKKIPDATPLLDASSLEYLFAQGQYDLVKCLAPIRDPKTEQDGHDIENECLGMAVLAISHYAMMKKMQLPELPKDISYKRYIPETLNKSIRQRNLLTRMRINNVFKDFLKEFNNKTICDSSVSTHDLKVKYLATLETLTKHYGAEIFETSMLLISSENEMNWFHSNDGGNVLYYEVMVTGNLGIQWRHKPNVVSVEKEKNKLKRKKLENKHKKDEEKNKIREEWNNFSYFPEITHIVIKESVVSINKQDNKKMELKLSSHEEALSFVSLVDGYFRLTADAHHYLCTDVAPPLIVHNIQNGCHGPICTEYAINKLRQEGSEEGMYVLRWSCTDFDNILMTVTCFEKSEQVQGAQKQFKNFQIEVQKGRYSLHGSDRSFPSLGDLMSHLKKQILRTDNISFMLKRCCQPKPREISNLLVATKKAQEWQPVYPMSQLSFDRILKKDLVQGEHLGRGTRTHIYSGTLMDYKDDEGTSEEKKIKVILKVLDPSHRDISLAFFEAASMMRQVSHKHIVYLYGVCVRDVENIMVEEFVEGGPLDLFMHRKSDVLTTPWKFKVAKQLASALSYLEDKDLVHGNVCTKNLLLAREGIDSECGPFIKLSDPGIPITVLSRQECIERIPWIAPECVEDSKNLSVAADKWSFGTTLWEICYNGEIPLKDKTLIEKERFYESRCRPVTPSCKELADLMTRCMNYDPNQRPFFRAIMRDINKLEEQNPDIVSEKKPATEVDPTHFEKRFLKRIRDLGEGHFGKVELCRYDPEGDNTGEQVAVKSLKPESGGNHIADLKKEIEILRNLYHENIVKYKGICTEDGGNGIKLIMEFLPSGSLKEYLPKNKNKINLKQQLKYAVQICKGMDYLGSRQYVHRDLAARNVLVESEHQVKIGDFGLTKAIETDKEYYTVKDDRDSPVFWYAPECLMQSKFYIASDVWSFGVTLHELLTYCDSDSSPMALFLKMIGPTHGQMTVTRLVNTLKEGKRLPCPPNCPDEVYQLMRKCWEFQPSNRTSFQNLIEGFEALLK

Row | IC50 [1] [nM] | Compound | IC50 [2] [nM]
1 | < 10 | N#CCC1(n2cc(-c3ncnc4[nH]ccc34)cn2)CN(C2CCN(C(=O)Nc3ccc(F)cc3C(F)(F)F)CC2)C1 | –
2 | < 10 | N#CCC1(n2cc(-c3ncnc4[nH]ccc34)cn2)CN(C2CCN(C(=O)c3ccnc(C(F)(F)F)n3)CC2)C1 | –
3 | < 10 | N#CC[C@]1(n2cc(-c3ncnc4[nH]ccc34)cn2)C[C@H](N2CCC(Oc3cc(CN4CC(O)C4)cc(C(F)(F)F)n3)CC2)C1 | –
4 | < 10 | N#CCC(C1CCN(c2nc3cccnc3o2)C1)n1cc(-c2ncnc3[nH]ccc23)cn1 (stereo unspecified) | –
5 | < 10 | N#CC[C@]1(n2cc(-c3ncnc4[nH]ccc34)cn2)C[C@H](N2CCN(C(=O)c3ccnc(C(F)(F)F)n3)CC2)C1 | –
6 | < 10 | CCNCc1cc(O[C@H]2CC[C@@H](N3CC(CC#N)(n4cc(-c5ncnc6[nH]ccc56)cn4)C3)CC2)nc(C(F)(F)F)c1 | –
7 | – | CCOc1c(C(C)n2nc(C)c3c(N)ncnc32)cc(C)c(C#N)c1-c1ccc(C(=O)N(C)C)nc1 (stereo unspecified) | < 50
8 | < 10 | C[C@H](O)CNCc1cc(OC2CCN([C@H]3C[C@](CC#N)(n4cc(-c5ncnc6[nH]ccc56)cn4)C3)CC2)nc(C(F)(F)F)c1 | –
9 | < 10 | N#CCC(CN1CCN(C(=O)c2ccc(C#N)cc2F)CC1)n1ccc(-c2ncnc3[nH]ccc23)c1 (stereo unspecified) | –
10 | < 10 | N#CCC1(n2cc(-c3ncnc4[nH]ccc34)cn2)CN([C@H]2CC[C@@H](Oc3cc(CCO)nc(C(F)(F)F)n3)CC2)C1 | –
11 | < 10 | N#CC[C@]1(n2cc(-c3ncnc4[nH]ccc34)cn2)C[C@H](N2CCC(Oc3cc(CCO)cc(C(F)(F)F)n3)CC2)C1 | –
12 | < 10 | CC(C)(O)c1cc(O[C@H]2CC[C@@H](N3CC(CC#N)(n4cc(-c5ncnc6[nH]ccc56)cn4)C3)CC2)nc(C(F)(F)F)c1 | –
13 | < 10 | C[C@@H](CO)NCc1cc(OC2CCN([C@H]3C[C@](CC#N)(n4cc(-c5ncnc6[nH]ccc56)cn4)C3)CC2)nc(C(F)(F)F)c1 | –
14 | < 100 | C[C@@H](O)c1nc2cnc3ccsc3c2n1[C@H]1CC[C@H](CC#N)OC1 | –
15 | < 10 | C[C@@H](O)CNCc1cc(OC2CCN([C@H]3C[C@](CC#N)(n4cc(-c5ncnc6[nH]ccc56)cn4)C3)CC2)nc(C(F)(F)F)c1 | –
16 | < 10 | C[C@H](NC(=O)c1cc(F)c(N2CC(CC#N)(n3cc(-c4ncnc5[nH]ccc45)cn3)C2)cc1F)C(F)(F)F | –
17 | < 10 | N#CC[C@]1(n2cc(-c3ncnc4[nH]ccc34)cn2)C[C@H](N2CCC(Oc3cc(CN4CCC[C@H]4CO)cc(C(F)(F)F)n3)CC2)C1 | –
18 | < 10 | N#CCC1(n2cc(-c3ncnc4[nH]ccc34)cn2)CN([C@H]2CC[C@@H](Oc3cc(CN4CC[C@@H](O)C4)cc(C(F)(F)F)n3)CC2)C1 | –
19 | < 10 | N#CCC1(n2cc(-c3ncnc4[nH]ccc34)cn2)CN([C@H]2CC[C@@H](Oc3cc(CN4CC[C@H](O)C4)cc(C(F)(F)F)n3)CC2)C1 (single isomer, unassigned) | –
20 | < 10 | N#CCC(C1CCN(c2cccc(Cl)n2)C1)n1cc(-c2ncnc3[nH]ccc23)cn1 (single isomer, unassigned) | –
21 | < 10 | N#CCC1(n2cc(-c3ncnc4[nH]ccc34)cn2)CN(C2CCN(C(=O)c3ccnc(C(F)(F)F)c3F)CC2)C1 [ITACITINIB] | –
